In patent US20180110754A1, “CENICRIVIROC FOR THE TREATMENT OF FIBROSIS” (Tobira Therapeutics, Inc., priority 2015, published 2018):
Read-outs that look alike come from different tables or passages of the source.

Legend:
CCR7 = CCR7 (Homo sapiens, UniProt P32248); test: Inhibition of ligand binding to CCR7
[1] = Mouse thioglycollate-induced peritonitis model: circulating blood cell counts; settings: in vivo
Protocol: (§1) The lavage fluid was placed on wet ice pending processing for total and differential cell counts using the Advia analyzer. Following the lavage collection, a blood sample (0.7 mL) was collected from each mouse by intracardiac puncture or from the vena cava (collection time was recorded). 0.5 mL of blood was placed in an EDTA tube, transferred to clinical pathology and analyzed for differential cell counts using the Advia analyzer. 0.2 mL of blood was placed in a K2EDTA tube and processed to plasma. The plasma was collected by centrifugation (3000 rpm for 10 minutes at 4° C.) and placed on dry ice. The samples were analyzed to determine CVC plasma levels. After blood collection, the animals were then exsanguinated by sectioning of the abdominal aorta.
(§2) Statistical Analysis: One-way ANOVA with post-hoc Dunnett's statistical analysis was performed on differential cell counts obtained from lavage and blood samples. The analysis was performed in comparison to Group 2.

[2] = tested on: thioglycollate-induced peritonitis (monocyte/macrophage and leukocyte recruitment); test: Mouse thioglycollate-induced peritonitis model: peritoneal lavage cell counts, body weight; assay type: in vivo
Protocol: Summary: The mouse thioglycollate induced peritonitis model is a commonly used preclinical model to assess the recruitment of […] cells and to assess the activation of macrophages.
Dexamethasone was used as a positive control in this experiment as it is a corticosteroid known to reduce inflammation in a variety of animal models. Murine inflammation models indicate that the effective dose range for dexamethasone, when administered orally, is 0.3 to 3 mg/kg QD. On this basis, an intermediate dose of 1 mg/kg was chosen for this particular study.
The lavage was repeated with a second injection of 2.5 mL via the initial puncture site and the samples were pooled for each animal.
as §1, with “The samples were analyzed to determine CVC plasma levels.” left out
as §2

CCR1 = CCR1 (Homo sapiens, UniProt P32246); test: Inhibition of ligand binding to CCR1
CCR1, sequence (P32246 whole entry): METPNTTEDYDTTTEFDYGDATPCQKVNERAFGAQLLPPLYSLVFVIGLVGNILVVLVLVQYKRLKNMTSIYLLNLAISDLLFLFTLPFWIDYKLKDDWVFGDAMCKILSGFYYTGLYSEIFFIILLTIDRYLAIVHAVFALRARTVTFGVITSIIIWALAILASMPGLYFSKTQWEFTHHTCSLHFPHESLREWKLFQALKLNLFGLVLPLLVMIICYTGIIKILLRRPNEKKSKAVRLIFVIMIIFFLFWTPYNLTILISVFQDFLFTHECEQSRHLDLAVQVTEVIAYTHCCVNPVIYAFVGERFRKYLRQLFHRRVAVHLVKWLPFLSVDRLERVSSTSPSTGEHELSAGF

[3] = known short half-life; cited from earlier work
MCP-1 = test: Study 201: MCP-1, hs-CRP and IL-6 levels; assay type: in vivo, human
Protocol: (§3) Participants were required to be antiretroviral treatment-experienced, CCR5 antagonist-naive, with HIV-1 RNA levels of at least 5000 copies/mL and CD4+ cell counts of at least 250 cells/mm^3 was performed.
Exploratory assessment of changes in MCP-1 (a ligand of CCR2, which is a chemokine co-receptor expressed on pro-inflammatory monocytes, also known as CCL2), hs-CRP, and IL-6 were performed and significant dose-dependent increases in MCP-1 were observed (Table 23).

[4] = tested on: RANTES-induced Ca2+ mobilization; test: RANTES-induced Ca2+ mobilization; assay type: cell-based
HIV-1 [5] = test: Study 201: pharmacokinetic/pharmacodynamic Emax model; assay type: in vivo, human; settings: for Emax: read-out: Percent of the maximum inhibitory effect at average Css (Emax model)
From the text: Drug response was characterized using the following maximum effect (Emax) model:
where E is effect, E0 is the baseline effect (fixed to 0), Imax is the maximum inhibition, C denotes the PK variable (AUC0-24, Cmax, or steady-state concentration [Css]), IC50 is the value of the PK variable which corresponds to 50% of the maximum inhibition and γ is the shape parameter which describes the degree of sigmoidicity.

HIV-1 [6] = test: Study 201 Phase 2a 10-day monotherapy: HIV-1 RNA and resistance; assay type: in vivo, human; settings: for Median nadir change from baseline in HIV-1 RNA: 10 days
Protocol: as §3
In Study 201, drug resistance testing was performed at Baseline, Day 7, and Day 40 (or at the “Early Termination” visit, if applicable).

[7] = Mouse thioglycollate-induced peritonitis model: CVC plasma levels (LC/MS/MS); assay type: in vivo
Protocol: as §1
Animals received the test article by oral gavage from Days 1 to 5. The twice daily (BID) dosing in Groups 2 to 5 was separated by approximately 12 hours. Blood samples were collected on Day 6 for assessment of plasma levels. Samples were collected by intracardiac puncture or from the vena cava, placed in a K2EDTA tube, and processed to plasma. Samples were stored frozen at −70 to −90° until analyzed. Due to the sacrifice time (48 hours after thioglycollate administration) being dictated by the primary endpoint, samples were collected approximately 14 hours postdose for Groups 2-5 and 26 hours postdose for the remaining groups. No samples were collected for animals 105, 201, 303 and 503.

CCR7, sequence (P32248 25-378): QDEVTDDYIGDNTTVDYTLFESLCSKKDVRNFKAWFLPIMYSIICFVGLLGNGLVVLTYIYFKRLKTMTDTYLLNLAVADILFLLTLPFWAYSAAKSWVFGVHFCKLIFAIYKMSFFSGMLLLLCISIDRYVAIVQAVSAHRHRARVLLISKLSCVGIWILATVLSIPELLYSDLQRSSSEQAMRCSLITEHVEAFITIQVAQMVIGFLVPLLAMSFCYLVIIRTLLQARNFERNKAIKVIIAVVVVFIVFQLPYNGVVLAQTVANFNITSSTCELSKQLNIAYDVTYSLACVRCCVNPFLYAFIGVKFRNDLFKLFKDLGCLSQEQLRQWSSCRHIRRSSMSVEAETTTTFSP

Structure (SMILES): CCCCOCCOc1ccc(-c2ccc3c(c2)/C=C(/C(=O)Nc2ccc([S@@+]([O-])Cc4cncn4CCC)cc2)CCCN3CC(C)C)cc1 [CVC, (S)-8-[4-(2-Butoxyethoxy)phenyl]-1-isobutyl-N-(4-{[(1-propyl-1H-imidazol-5-yl)methyl]sulfinyl}phenyl)-1,2,3,4-tetrahydro-1-benzazocine-5-carboxamide]
- Inhibition of ligand binding to CCR7 (CCR7): did not inhibit
- Circulating blood cell counts [1]: no clear changes
- Decrease in monocytes in peritoneal lavage vs thioglycollate control (Group 2) ([2]; Group 3 (CVC BID)): 5.7%
- Decrease in total leukocytes in peritoneal lavage vs thioglycollate control (Group 2) ([2]; Group 3 (CVC BID)): 0.8%
- Decrease in monocytes in peritoneal lavage vs thioglycollate control (Group 2) ([2]; Group 4 (CVC BID)): 45.2%
- Decrease in total leukocytes in peritoneal lavage vs thioglycollate control (Group 2) ([2]; Group 4 (CVC BID)): 22.2%
- Decrease in monocytes in peritoneal lavage vs thioglycollate control (Group 2) ([2]; Group 5 (CVC BID)): 76.5%
- Decrease in total leukocytes in peritoneal lavage vs thioglycollate control (Group 2) ([2]; Group 5 (CVC BID)): 57.6%
- Decrease in monocytes in peritoneal lavage vs thioglycollate control (Group 2) ([2]; Group 6 (CVC QD)): 26.0%
- Decrease in total leukocytes in peritoneal lavage vs thioglycollate control (Group 2) ([2]; Group 6 (CVC QD)): 14.2%
- Body weights, Days 1 to 6 ([2]; mouse, in vivo): no notable changes in body weights
- Inhibition of ligand binding to CCR1 (CCR1): did not inhibit
- Half-life in mice [3]: ~2 h
- Effect on hs-CRP or IL-6 levels (MCP-1; 10-day study, overall): no effect
- MCP-1 Baseline, Mean (MCP-1; CVC 25 mg): 20.0 pg/mL
- MCP-1 Baseline, Median (MCP-1; CVC 25 mg): 16.0 pg/mL
- MCP-1 Baseline, Range (MCP-1; CVC 25 mg): 7 to 44 pg/mL
- MCP-1 Change from Baseline to Day 10, Median (MCP-1; CVC 25 mg): +25.0 pg/mL
- MCP-1 Day 10, Mean (MCP-1; CVC 25 mg): 75.3 pg/mL
- MCP-1 Day 10, Median (MCP-1; CVC 25 mg): 39.0 pg/mL
- MCP-1 Day 10, Range (MCP-1; CVC 25 mg): 10 to 287 pg/mL
- MCP-1 Baseline, Mean (MCP-1; CVC 50 mg): 12.6 pg/mL
- MCP-1 Baseline, Median (MCP-1; CVC 50 mg): 6.0 pg/mL
- MCP-1 Baseline, Range (MCP-1; CVC 50 mg): 5 to 37 pg/mL
- MCP-1 Change from Baseline to Day 10, Median (MCP-1; CVC 50 mg): +56.0 pg/mL
- MCP-1 Day 10, Mean (MCP-1; CVC 50 mg): 101.3 pg/mL
- MCP-1 Day 10, Median (MCP-1; CVC 50 mg): 65.0 pg/mL
- MCP-1 Day 10, Range (MCP-1; CVC 50 mg): 21 to 266 pg/mL
- MCP-1 Baseline, Mean (MCP-1; CVC 75 mg): 26.6 pg/mL
- MCP-1 Baseline, Median (MCP-1; CVC 75 mg): 8.0 pg/mL
- MCP-1 Baseline, Range (MCP-1; CVC 75 mg): 5 to 92 pg/mL
- MCP-1 Change from Baseline to Day 10, Median (MCP-1; CVC 75 mg): +36.0 pg/mL
- MCP-1 Day 10, Mean (MCP-1; CVC 75 mg): 59.1 pg/mL
- MCP-1 Day 10, Median (MCP-1; CVC 75 mg): 43.5 pg/mL
- MCP-1 Day 10, Range (MCP-1; CVC 75 mg): 20 to 128 pg/mL
- MCP-1 Baseline, Mean (MCP-1; CVC 150 mg): 31.6 pg/mL
- MCP-1 Baseline, Median (MCP-1; CVC 150 mg): 19.5 pg/mL
- MCP-1 Baseline, Range (MCP-1; CVC 150 mg): 8 to 82 pg/mL
- MCP-1 Change from Baseline to Day 10, Median (MCP-1; CVC 150 mg): +322.0 pg/mL
- MCP-1 Day 10, Mean (MCP-1; CVC 150 mg): 372.0 pg/mL
- MCP-1 Day 10, Median (MCP-1; CVC 150 mg): 368.0 pg/mL
- MCP-1 Day 10, Range (MCP-1; CVC 150 mg): 79 to 605 pg/mL
- Effect on RANTES-induced Ca2+ mobilization [4]: blocked
- Emax (HIV-1 [5]; Human immunodeficiency virus 1, 25 mg): 54.9%
- Emax (HIV-1 [5]; Human immunodeficiency virus 1, 50 mg): 79.8%
- Emax (HIV-1 [5]; Human immunodeficiency virus 1, 75 mg): 85.9%
- Emax (HIV-1 [5]; Human immunodeficiency virus 1, 150 mg): 95.9%
- Emax in the PK/PD model (HIV-1 RNA) (HIV-1 [5]; in vivo): −1.43 log10 copies/mL
- Median nadir change from baseline in HIV-1 RNA (HIV-1 [6]; 25 mg once daily): −0.7 log^10 copies/mL
- Median nadir change from baseline in HIV-1 RNA (HIV-1 [6]; 50 mg once daily): −1.6 log^10 copies/mL
- Median nadir change from baseline in HIV-1 RNA (HIV-1 [6]; 75 mg once daily): −1.8 log^10 copies/mL
- Median nadir change from baseline in HIV-1 RNA (HIV-1 [6]; 150 mg once daily): −1.7 log^10 copies/mL
- Drug resistance testing (Baseline, Day 7, Day 40) (HIV-1 [6]; all subjects with evaluable samples): fully susceptible
- Plasma levels at the approximate trough (14 hours postdose) ([7]; BID dosing, Day 6): increased in a dose-related manner
- concentration at 14.5 h ([7]; mouse, plasma, mice, Day 6, Group 3, 5 mg/kg/day (BID) oral, ~14 hours postdose (actual 14.5 hours), N=2, 3 of 5 samples below LLOQ (10 ng/mL)): 13.5 ng/mL
- concentration at 15 h ([7]; mouse, plasma, mice, Day 6, Group 4, 20 mg/kg/day (BID) oral, ~14 hours postdose (actual 15 hours)): 81.2 ± 22.8 ng/mL
- concentration at 15.5 h ([7]; mouse, plasma, mice, Day 6, Group 5, 100 mg/kg/day (BID) oral, ~14 hours postdose (actual 15.5 hours)): 551 ± 253 ng/mL
- concentration at 28 h ([7]; mouse, plasma, mice, Day 6, Group 6, 20 mg/kg/day (QD) oral, ~26 hours postdose (actual 28 hours)): 25.7 ± 8.1 ng/mL
